The source made the active and inactive calls.
Legend:
[1] = biological target: T1, Methionyl-tRNA synthetase, putative (Trypanosoma brucei brucei, UniProt Q38C91); assay type: functional, Trypanosoma brucei brucei strain 927/4 GUTat10.1
T1 sequence (Q38C91 whole entry): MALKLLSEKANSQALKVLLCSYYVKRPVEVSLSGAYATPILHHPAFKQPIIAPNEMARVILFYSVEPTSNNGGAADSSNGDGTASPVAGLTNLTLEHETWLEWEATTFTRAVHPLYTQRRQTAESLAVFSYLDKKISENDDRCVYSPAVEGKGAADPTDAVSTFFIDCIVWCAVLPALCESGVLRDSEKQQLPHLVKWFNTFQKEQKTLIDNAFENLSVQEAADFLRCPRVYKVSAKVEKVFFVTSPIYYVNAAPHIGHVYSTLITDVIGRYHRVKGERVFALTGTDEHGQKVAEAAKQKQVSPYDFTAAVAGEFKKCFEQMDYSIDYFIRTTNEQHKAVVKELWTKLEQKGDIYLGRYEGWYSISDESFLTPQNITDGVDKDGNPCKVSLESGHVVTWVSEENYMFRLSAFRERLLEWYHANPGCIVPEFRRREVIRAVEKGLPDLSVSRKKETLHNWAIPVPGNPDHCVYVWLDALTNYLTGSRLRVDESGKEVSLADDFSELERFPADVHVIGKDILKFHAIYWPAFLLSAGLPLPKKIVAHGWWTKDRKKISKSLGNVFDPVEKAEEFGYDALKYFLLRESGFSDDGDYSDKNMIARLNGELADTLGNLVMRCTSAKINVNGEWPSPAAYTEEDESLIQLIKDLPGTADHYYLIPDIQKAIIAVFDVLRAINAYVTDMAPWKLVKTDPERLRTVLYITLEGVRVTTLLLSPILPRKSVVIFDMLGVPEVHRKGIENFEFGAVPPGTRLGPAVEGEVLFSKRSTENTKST

[2] = Counterscreen for inhibitors of Trypanosoma brucei methionyl tRNA synthetase (MetRS): Luminescence-based cell-based high throughput dose response assay to identify compounds that are cytotoxic to Jurkat human T lymphocyte cells.; assay type: functional
[3] = biological target: T1, Methionyl-tRNA synthetase, putative; assay type: functional, Trypanosoma brucei brucei strain 927/4 GUTat10.1; remark: listed apart in the source
Paired box protein Pax-8 = Paired box protein Pax-8 (Homo sapiens, UniProt Q06710); assay: PAX8 transcriptional activity inhibition in RMG-I – RMG-I cells, luciferase, cherry-pick, dose response (AID 687027); assay type: functional, cell-based;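 also: luciferase reporter driven by Pax8 target thyroperoxidase promoter measured by SteadyGlo luminescence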
[4] = OVCAR-3 cell viability loss – plate reader, dry powder samples, PAX8 inhibitor project, dose response (AID 743044); assay type: functional, cell-based
[5] = OVCAR8 cell viability loss – plate reader, dry powder samples, PAX8 project, dose response (AID 743197); assay type: functional, cell-based; settings: OVCAR-8
[6] = biological target: T2, Corticotropin-releasing factor receptor 2/Corticotropin-releasing factor-binding protein (Homo sapiens, UniProt P24387+Q13324); assay: Dose Response confirmation of uHTS hits for small molecule antagonists of the CRF-binding protein and CRF-R2 receptor complex.; assay type: functional; settings: read-out: IC50_Mean
T2 sequence (Q13324 whole entry): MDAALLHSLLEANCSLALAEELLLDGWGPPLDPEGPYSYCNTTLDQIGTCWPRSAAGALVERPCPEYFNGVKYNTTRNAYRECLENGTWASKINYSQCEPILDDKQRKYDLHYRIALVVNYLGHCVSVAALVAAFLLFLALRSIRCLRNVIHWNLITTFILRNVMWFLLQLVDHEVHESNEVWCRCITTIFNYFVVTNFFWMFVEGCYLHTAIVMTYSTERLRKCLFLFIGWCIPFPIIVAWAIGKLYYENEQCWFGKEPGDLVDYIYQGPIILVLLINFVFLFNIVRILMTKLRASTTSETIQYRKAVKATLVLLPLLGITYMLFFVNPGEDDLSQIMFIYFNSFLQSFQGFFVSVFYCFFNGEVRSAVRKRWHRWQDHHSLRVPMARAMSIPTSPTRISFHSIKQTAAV
T2 sequence (P24387 whole entry): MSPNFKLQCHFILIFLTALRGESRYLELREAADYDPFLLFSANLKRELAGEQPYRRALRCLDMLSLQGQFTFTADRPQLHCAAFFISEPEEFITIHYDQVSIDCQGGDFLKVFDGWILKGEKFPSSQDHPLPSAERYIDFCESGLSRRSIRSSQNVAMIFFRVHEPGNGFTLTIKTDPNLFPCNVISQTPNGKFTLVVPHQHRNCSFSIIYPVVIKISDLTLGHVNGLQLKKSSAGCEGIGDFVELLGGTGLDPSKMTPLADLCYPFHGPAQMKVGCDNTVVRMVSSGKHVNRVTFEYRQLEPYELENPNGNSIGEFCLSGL

[7] = biological target: T2, Corticotropin-releasing factor receptor 2/Corticotropin-releasing factor-binding protein; assay: activators of CRF receptor 2 with binding protein – uHTS hits, confirmation (AID 602473); assay type: functional; settings: read-out: EC50_Mean
[8] = blockers of CRF-binding protein–CRF-R2 complex – cell-based, uHTS hits, 384-well, dose response (AID 651639); assay type: functional, Homo sapiens; settings: read-out: IC50_Mean
[9] = Luminescence Cell-Based Dose Response HTS to Identify Activators of Luciferase Translation or Activity in H4 […] Cells. [Related pubchem assays: 1829 (Project Summary), 1814 (Primary HTS)]; assay type: functional
H4 = assay: Luminescence Cell-Based Dose Response HTS to Identify Activators of 5'UTR Stem-Loop Driven Prion Protein mRNA Translation in H4 Neuroglioblastoma Cells. [Related pubchem assays: 1829 (Project Summary), 1814 (Primary HTS)]; assay type: functional; settings: Homo sapiens
[10] = biological target: T3, Oxysterols receptor LXR-beta (Homo sapiens, UniProt P55055); assay type: functional, cell-based;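 also: agonist activity at LXR measured by a cell-based luminescence readout across a dose range, run as a counterscreen for daf-12 agonists; HEK293 cells with Gal4-LXR fusion and GAL4-driven luciferase reporter; potency for activation of Gal4-LXR reporter so compounds are agonists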
T3 sequence (P55055 whole entry): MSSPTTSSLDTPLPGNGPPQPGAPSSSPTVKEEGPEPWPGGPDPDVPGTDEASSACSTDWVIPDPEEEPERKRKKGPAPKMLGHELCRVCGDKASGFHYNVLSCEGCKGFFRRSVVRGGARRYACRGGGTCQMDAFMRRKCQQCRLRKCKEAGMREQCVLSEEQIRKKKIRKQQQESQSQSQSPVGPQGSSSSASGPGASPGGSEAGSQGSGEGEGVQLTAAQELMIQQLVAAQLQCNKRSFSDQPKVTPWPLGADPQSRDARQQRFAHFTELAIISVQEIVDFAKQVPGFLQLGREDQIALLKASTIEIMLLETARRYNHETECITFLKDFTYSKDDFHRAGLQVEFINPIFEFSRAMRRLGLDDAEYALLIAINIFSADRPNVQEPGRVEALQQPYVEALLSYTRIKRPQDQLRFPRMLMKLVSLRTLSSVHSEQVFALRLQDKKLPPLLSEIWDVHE

[11] = blockers of HIV-1 envelope-mediated cell-cell fusion – cherry-pick, dose response (AID 652057); assay type: functional, cell-based
[12] = blockers of HIV-1 ZM109 envelope-driven cell-cell fusion – HeLa effector, CEM target cells, luciferase, cherry-pick, dose response (AID 652058); assay type: functional, cell-based;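 also: luciferase signal from HIV-1 Env mediated cell-cell fusion of effector and target cells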
[13] = off-target signal loss in HeLa-CEM21 co-culture – HeLa F-luc CTL cells, cherry-picked, counter-screen for HIV-1 Env fusion inhibitor project, dose response (AID 652040); assay type: functional, cell-based;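 also: potency for signal decrease marking cytotoxic or nonspecific inhibition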
[14] = HIV-1 AD8 envelope cell-cell fusion blockers – cherry-pick, dose response (AID 652062); assay type: functional, cell-based;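 also: luciferase signal from cell-cell fusion driven by HIV-1 clade B AD8 Env; potency is for inhibitors of fusion seen as a drop in luminescence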

Paired box protein Pax-8, sequence (Q06710 whole entry): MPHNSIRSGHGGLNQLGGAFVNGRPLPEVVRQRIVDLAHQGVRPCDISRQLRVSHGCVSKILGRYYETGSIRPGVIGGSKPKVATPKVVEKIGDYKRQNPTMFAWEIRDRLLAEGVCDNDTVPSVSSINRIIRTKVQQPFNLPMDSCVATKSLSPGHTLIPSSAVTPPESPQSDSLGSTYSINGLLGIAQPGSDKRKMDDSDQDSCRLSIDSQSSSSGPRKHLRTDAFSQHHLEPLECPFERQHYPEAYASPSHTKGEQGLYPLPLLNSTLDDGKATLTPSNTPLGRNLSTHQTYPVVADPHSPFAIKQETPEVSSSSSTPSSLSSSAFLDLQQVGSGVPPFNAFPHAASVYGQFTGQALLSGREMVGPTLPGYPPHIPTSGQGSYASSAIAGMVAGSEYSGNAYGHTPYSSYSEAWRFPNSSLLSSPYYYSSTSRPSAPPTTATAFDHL

With `COc1ccccc1-c1c[nH]c(C(O)c2cc(Cl)cc(Cl)c2)n1` (stereo not given) as the compound, how does the IC50 [1] read?
The IC50 was 3.26 µM (active).

What about the IC50 [2] of the same compound?
Its IC50 is 83.3 µM (inactive).

What about the IC50 [3] of the same compound?
The IC50 was 2.38 µM (active).

With `C[C@@H]1CCCCO[C@@H](CN(C)C(=O)Nc2ccc(C(F)(F)F)cc2)[C@H](C)CN([C@H](C)CO)C(=O)c2cc(NS(=O)(=O)c3ccc(Cl)cc3)ccc2O1` as the compound, how does the AC50 (Paired box protein Pax-8) read?
Its AC50 is 3.25 µM (active).

And the AC50 [4]?
The AC50 was 27.8 µM (active).

What about the AC50 [5] of the same compound?
The AC50 was 32 µM (active).

For `O=C(CCC(=O)Nc1cccc([N+](=O)[O-])c1)N/N=C/c1cccs1`, which IC50 [1] is on record?
Its IC50 is 8.34 µM (active).

And the IC50 [2]?
Its IC50 is 83.3 µM (inactive).

And the IC50 [3]?
Its IC50 is 5.26 µM (active).

With `Cc1nc2ccccc2n1CCOc1ccc([N+](=O)[O-])cc1` as the compound, how does the IC50 [6] read?
Its IC50 is < 0.368 µM (active).

And the EC50 [7]?
Its EC50 is > 53 µM (inactive).

What about the IC50 [8] of the same compound?
The IC50 was 0.972 µM (active).

With `N=C1c2ccccc2CN1CC(=O)c1ccccc1` as the compound, how does the EC50 [9] read?
Its EC50 is 10.6 µM (active).

And the EC50 (H4)?
The EC50 was 8 µM (active).

What about the EC50 [10] of the same compound?
The EC50 was > 67.6 µM (inactive).

With `O=C(NCC(O)COc1ccc([N+](=O)[O-])cc1)Nc1ccccc1` (stereo not given) as the compound, how does the IC50 [1] read?
Its IC50 is 15.6 µM (inactive).

What about the IC50 [2] of the same compound?
The IC50 was 83.4 µM (inactive).

What about the IC50 [3] of the same compound?
Its IC50 is 9.32 µM (active).

For `O=C(NCC(=O)N1CCN(c2ncccn2)CC1)c1ccccc1OC(F)F`, which AC50 [11] is on record?
The AC50 was 2.79 µM (active).

And the AC50 [12]?
Its AC50 is 2.86 µM (active).

And the AC50 [13]?
Its AC50 is 3.72 µM (active).

And the AC50 [14]?
Its AC50 is 13.1 µM (active).

What does the source list for `C/C(=N\c1ccccc1)c1sc2ccccc2c1O`?
EC50 [9]: 2.22 µM (active); EC50 (H4): 0.153 µM (active); EC50 [10]: > 67.6 µM (inactive)

Reference: ChEMBL document CHEMBL1201862, “PubChem BioAssay data set” (2004)
